Patent US6972296B2, “Carboxylic acid derivatives that inhibit the binding of integrins to their receptors” (Encysive Pharmaceuticals Inc., priority 1999, dated 2005)

Biological target: T1, α4β1 integrin (Homo sapiens, UniProt P05556+P13612)
T1 construct: endogenous in cells; host or cells: Ramos cells
Experiment: Adhesion of calcein-labeled Ramos cells to CS1 (fibronectin) peptide conjugated ovalbumin
Assay type: cell-based
Conditions: Ramos cell adhesion to CS1 conjugated ovalbumin
Outline: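 Plates bearing CS1 fibronectin peptide coupled to ovalbumin (0.5 μg/ml coat, 3% BSA block) received calcein-labelled Ramos cells plus compound (100 μM stated) for 30 min at 37 °C. Buffer was TBS pH 7.5 with 1 mM Mg2+, Ca2+, Mn2+; bound cells quantified by fluorescence after lysis; […].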

[1] = Table 7, dose required to give 50% inhibition
[2] = Table 5, dose required to give 50% inhibition

T1 sequence (P13612 34-1032): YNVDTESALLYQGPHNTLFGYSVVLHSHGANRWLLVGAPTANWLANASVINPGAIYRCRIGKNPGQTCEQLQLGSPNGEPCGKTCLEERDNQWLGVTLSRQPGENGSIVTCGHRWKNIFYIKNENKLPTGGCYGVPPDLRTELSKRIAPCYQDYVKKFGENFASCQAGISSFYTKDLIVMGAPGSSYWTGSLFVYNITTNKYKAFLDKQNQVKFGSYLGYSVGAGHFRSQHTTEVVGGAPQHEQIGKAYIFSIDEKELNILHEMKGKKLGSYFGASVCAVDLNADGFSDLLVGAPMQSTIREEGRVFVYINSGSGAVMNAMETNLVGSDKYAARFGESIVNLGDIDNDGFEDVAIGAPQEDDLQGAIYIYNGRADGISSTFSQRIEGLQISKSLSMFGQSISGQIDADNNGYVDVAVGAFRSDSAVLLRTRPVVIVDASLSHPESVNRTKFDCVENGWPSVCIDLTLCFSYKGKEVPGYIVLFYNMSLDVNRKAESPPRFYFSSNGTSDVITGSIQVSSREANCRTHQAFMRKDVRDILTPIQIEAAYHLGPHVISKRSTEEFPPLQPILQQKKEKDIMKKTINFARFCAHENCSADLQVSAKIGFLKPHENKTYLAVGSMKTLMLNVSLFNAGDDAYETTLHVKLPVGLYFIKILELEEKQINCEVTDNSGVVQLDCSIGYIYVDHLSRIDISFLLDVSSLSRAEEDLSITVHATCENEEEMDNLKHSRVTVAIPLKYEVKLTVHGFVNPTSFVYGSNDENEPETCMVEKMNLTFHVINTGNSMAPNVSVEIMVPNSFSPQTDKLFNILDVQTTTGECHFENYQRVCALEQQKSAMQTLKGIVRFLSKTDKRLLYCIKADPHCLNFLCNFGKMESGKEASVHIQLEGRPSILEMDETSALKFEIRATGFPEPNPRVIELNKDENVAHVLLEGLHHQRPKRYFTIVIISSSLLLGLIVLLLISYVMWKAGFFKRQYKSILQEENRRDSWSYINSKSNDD
T1 sequence (P05556 21-798): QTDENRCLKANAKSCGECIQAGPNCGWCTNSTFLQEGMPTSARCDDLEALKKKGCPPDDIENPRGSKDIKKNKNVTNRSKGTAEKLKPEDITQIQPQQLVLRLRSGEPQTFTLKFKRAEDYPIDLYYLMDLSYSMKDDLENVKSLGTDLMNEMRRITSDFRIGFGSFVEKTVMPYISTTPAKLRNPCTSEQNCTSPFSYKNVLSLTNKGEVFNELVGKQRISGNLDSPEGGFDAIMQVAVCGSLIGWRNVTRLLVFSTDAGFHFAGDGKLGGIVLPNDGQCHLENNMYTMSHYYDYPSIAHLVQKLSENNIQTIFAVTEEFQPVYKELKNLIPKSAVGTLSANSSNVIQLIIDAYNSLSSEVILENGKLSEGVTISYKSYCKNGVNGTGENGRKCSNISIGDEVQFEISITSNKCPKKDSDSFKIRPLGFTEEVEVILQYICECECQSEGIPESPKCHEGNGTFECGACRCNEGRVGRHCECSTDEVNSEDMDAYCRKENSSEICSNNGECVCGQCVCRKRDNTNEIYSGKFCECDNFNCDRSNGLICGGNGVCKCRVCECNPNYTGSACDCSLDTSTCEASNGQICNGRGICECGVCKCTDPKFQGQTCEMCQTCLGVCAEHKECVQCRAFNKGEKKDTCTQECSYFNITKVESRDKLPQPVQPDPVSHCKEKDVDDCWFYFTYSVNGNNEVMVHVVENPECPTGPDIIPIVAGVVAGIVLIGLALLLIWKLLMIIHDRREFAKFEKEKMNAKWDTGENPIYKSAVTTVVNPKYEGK

Structure (SMILES): CCn1ccc2cc([C@H](CC(=O)O)NC(=O)Nc3c(O)c4c(n(Cc5ccccc5Cl)c3=O)CCC4)ccc21 [(3S)-3-{[({1-[(2-chlorophenyl)methyl]-4-hydroxy-2-oxo-2,5,6,7-tetrahydro-1H-cyclopenta[b]pyridin-3-yl}amino)carbonyl]amino}-3-(1-ethyl-1H-indol-5-yl)propanoic acid]
- IC50 [1]: 5 nM

Structure (SMILES): Cc1ccc([C@H](CC(=O)O)NC(=O)Nc2cccn(Cc3cc([N+](=O)[O-])ccc3Br)c2=O)cc1
- IC50 (Table 4, 30 minutes at 37° C.): 2000 nM

Structure (SMILES): CCOc1cccc(Cl)c1Cn1c(C)cc(O)c(NC(=O)N[C@@H](CC(=O)O)c2cccc(OC(C)C)c2)c1=O [(3S)-3-[({[1-(2-chloro-6-ethoxybenzyl)-4-hydroxy-6-methyl-2-oxo-1,2-dihydropyridin-3-yl]amino}carbonyl)amino]-3-(3-isopropoxyphenyl)propanoic acid]
- IC50 [1]: 3 nM

Structure (SMILES): Cc1cccc([C@H](CC(=O)O)NC(=O)Nc2c(O)c3c(n(Cc4ccccc4Cl)c2=O)CCC3)c1 [(3S)-3-[({[1-(2-chlorobenzyl)-4-hydroxy-2-oxo-2,5,6,7-tetrahydro-1H-cyclopenta[b]pyridin-3-yl]amino}carbonyl)amino]-3-(3-methylphenyl)propanoic acid]
- IC50 [1]: 5 nM

Structure (SMILES): CCCc1ccn(Cc2ccccc2)c(=O)c1NC(=O)N[C@@H](CC(=O)O)c1ccc2c(c1)OCO2 [(3S)-3-(1,3-benzodioxol-5-yl)-3-[({[2-oxo-1-(phenylmethyl)-4-propyl-1,2-dihydro-3-pyridinyl]amino}carbonyl)amino]propanoic acid]
- IC50 (Table 3, 30 minutes at 37° C.): 10 nM

Structure (SMILES): Cc1cccc(Cl)c1Cn1c2c(c(O)c(NC(=O)N[C@@H](CC(=O)O)c3ccc4[nH]ccc4c3)c1=O)CCC2 [(3S)-3-{[({1-[(2-chloro-6-methylphenyl)methyl]-4-hydroxy-2-oxo-2,5,6,7-tetrahydro-1H-cyclopenta[b]pyridin-3-yl}amino)carbonyl]amino}-3-(1H-indol-5-yl)propanoic acid]
- IC50 [1]: 2 nM

Structure (SMILES): CCOc1ccc([C@H](CC(=O)O)NC(=O)Nc2c(O)c(C)c(C)n(Cc3ccccc3Cl)c2=O)cc1OCC [(3S)-3-[({[1-(2-chlorobenzyl)-4-hydroxy-5,6-dimethyl-2-oxo-1,2-dihydropyridin-3-yl]amino}carbonyl)amino]-3-(3,4-diethoxyphenyl)propanoic acid]
- IC50 [2]: 3 nM

Structure (SMILES): CCOc1cc(OCC)cc([C@H](CC(=O)O)NC(=O)Nc2c(O)c(C)cn(Cc3ccccc3Cl)c2=O)c1
- IC50 (Table 6, 30 minutes at 37° C.): 3 nM

Structure (SMILES): O=C(O)C[C@H](NC(=O)Nc1cccn(Cc2cccs2)c1=O)c1ccc(C(F)(F)F)cc1
- IC50 (Table 4, 30 minutes at 37° C.): 1500 nM

Structure (SMILES): COc1cccc(Cl)c1Cn1ccc(O)c(NC(=O)N[C@@H](CC(=O)O)c2ccc(OC(F)(F)F)cc2)c1=O
- IC50 [2]: 40 nM

Structure (SMILES): Cc1ccc([C@H](CC(=O)O)NC(=O)Nc2cc(Cl)cc(Cc3ccccc3)c2O)cc1 [(3S)-3-[({[5-chloro-2-hydroxy-3-(phenylmethyl)phenyl]amino}carbonyl)amino]-3-(4-methylphenyl)propanoic acid]
- IC50 (Table 4, 30 minutes at 37° C.): 8000 nM

Structure (SMILES): CCOc1cccc([C@H](CC(=O)O)NC(=O)Nc2c(O)c(C3CC3)cn(Cc3ccccc3Cl)c2=O)c1
- IC50 (Table 6, 30 minutes at 37° C.): 14 nM

Structure (SMILES): O=C(O)C[C@H](NC(=O)Nc1c(O)ccn(Cc2ccccc2Cl)c1=O)c1ccc(OC(F)(F)F)cc1
- IC50 (Table 4, 30 minutes at 37° C.): 15 nM

Structure (SMILES): Cc1ccc([C@H](CC(=O)O)NC(=O)Nc2c(O)cc(C)n(Cc3ccccc3Cl)c2=O)cc1 [(3S)-3-{[({1-[(2-chlorophenyl)methyl]-4-hydroxy-6-methyl-2-oxo-1,2-dihydro-3-pyridinyl}amino)carbonyl]amino}-3-(4-methylphenyl)propanoic acid]
- IC50 (Table 3, 30 minutes at 37° C.): 15 nM

Structure (SMILES): O=C(O)CC(NC(=O)Nc1c(O)ccn(Cc2ccccc2Cl)c1=O)c1ccco1 (stereo not drawn)
- IC50 [2]: 50 nM

Structure (SMILES): O=C(O)C[C@H](NC(=O)Nc1c(O)c2c(n(Cc3ccccc3Cl)c1=O)CCC2)c1ccc2c(c1)CCO2
- IC50 [1]: 2 nM

Structure (SMILES): Cc1ccc([C@H](CC(=O)O)NC(=O)Nc2c(O)c(C)cn(Cc3cc(S(=O)(=O)N4CCCCC4)ccc3Cl)c2=O)cc1
- IC50 [1]: 27 nM

Structure (SMILES): Cc1cn(Cc2ccccc2Cl)c(=O)c(NC(=O)N[C@@H](CC(=O)O)c2ccc(C(C)C)cc2)c1O
- IC50 [1]: 175 nM

Structure (SMILES): CSc1cccc(Cn2ccc(O)c(NC(=O)N[C@@H](CC(=O)O)c3ccc(C)cc3)c2=O)c1
- IC50 (Table 6, 30 minutes at 37° C.): 20 nM

Structure (SMILES): CCOc1cc([C@H](CC(=O)O)NC(=O)Nc2c(O)c3c(n(Cc4c(C)cccc4Cl)c2=O)CCC3)c(Cl)c(OCC)c1Cl
- IC50 [1]: 500 nM

Structure (SMILES): Cc1cccc(Cn2cccc(NC(=O)N[C@@H](CC(=O)O)c3ccc4c(c3)OCO4)c2=O)c1
- IC50 (Table 4, 30 minutes at 37° C.): 1500 nM

Structure (SMILES): Cc1ccc([C@H](CC(=O)O)NC(=O)Nc2cnc(C)n(Cc3ccccc3)c2=O)cc1 [(3S)-3-[({[2-methyl-6-oxo-1-(phenylmethyl)-1,6-dihydro-5-pyrimidinyl]amino}carbonyl)amino]-3-(4-methylphenyl)propanoic acid]
- IC50 (Table 4, 30 minutes at 37° C.): 100 nM

Structure (SMILES): Cc1ccc([C@H](CC(=O)O)NC(=O)Nc2c(O)ccn(Cc3cccc(C)c3)c2=O)cc1
- IC50 [2]: 55 nM

Structure (SMILES): CC(C)Oc1cccc([C@H](CC(=O)O)NC(=O)Nc2c(O)c3c(n(Cc4ccccc4Cl)c2=O)CCC3)c1 [(3S)-3-[({[1-(2-chlorobenzyl)-4-hydroxy-2-oxo-2,5,6,7-tetrahydro-1H-cyclopenta[b]pyridin-3-yl]amino}carbonyl)amino]-3-(3-isopropoxyphenyl)propanoic acid]
- IC50 (Table 6, 30 minutes at 37° C.): 3 nM

Structure (SMILES): CC(C)C[C@H](CC(=O)O)NC(=O)Nc1c(N2CCOCC2)ccn(Cc2ccccc2Cl)c1=O
- IC50 (Table 4, 30 minutes at 37° C.): 100 nM

Structure (SMILES): O=C(O)C[C@H](NC(=O)Nc1c(O)c2c(n(Cc3ccccc3Cl)c1=O)CCC2)c1cccc(OC2CCC2)c1
- IC50 [1]: 17 nM

Structure (SMILES): O=C(O)C[C@H](NC(=O)Nc1c(O)c2c(n(Cc3ccccc3Cl)c1=O)CCC2)c1ccc2c(c1)CCC2
- IC50 [1]: 8 nM

Structure (SMILES): COc1ccccc1-c1cccc([C@H](CC(=O)O)NC(=O)Nc2c(O)c(C)cn(Cc3ccccc3Cl)c2=O)c1
- IC50 [1]: 15 nM

Structure (SMILES): COc1ccc2cc(C(CC(=O)O)NC(=O)Nc3c(O)ccn(Cc4ccccc4Cl)c3=O)ccc2c1 (stereo not drawn)
- IC50 (Table 6, 30 minutes at 37° C.): 15 nM

Structure (SMILES): O=C(O)C[C@H](NC(=O)Nc1c(O)ccn(Cc2ccccc2Cl)c1=O)c1cc(C(F)(F)F)cc(C(F)(F)F)c1
- IC50 [2]: 220 nM

Structure (SMILES): Cc1ccc([C@H](CC(=O)O)NC(=O)Nc2c(NCc3cccnc3)ccn(Cc3ccccc3Cl)c2=O)cc1
- IC50 (Table 3, 30 minutes at 37° C.): 20 nM

Structure (SMILES): O=C(O)C[C@H](NC(=O)Nc1c(O)c2c(n(Cc3ccccc3Cl)c1=O)CCC2)c1ccc(OC(F)F)cc1
- IC50 [1]: 13 nM

Structure (SMILES): Cc1ccc([C@H](CC(=O)O)NC(=O)Nc2c(O)ccn(Cc3c(C)cc(C)cc3C)c2=O)cc1
- IC50 [2]: 60 nM

Structure (SMILES): CCOc1cccc(Cl)c1Cn1cc(C)c(O)c(NC(=O)N[C@@H](CC(=O)O)c2ccc3cc(OC)ccc3c2)c1=O [(3S)-3-[({[1-(2-chloro-6-ethoxybenzyl)-4-hydroxy-5-methyl-2-oxo-1,2-dihydropyridin-3-yl]amino}carbonyl)amino]-3-(6-methoxy-2-naphthyl)propanoic acid]
- IC50 [1]: 3 nM

Structure (SMILES): CCCc1cn(Cc2ccc(Cl)cc2)c(=O)c(NC(=O)N[C@@H](CC(=O)O)c2ccc(C)cc2)c1O
- IC50 [2]: 30 nM

Structure (SMILES): O=C(O)C[C@H](NC(=O)Nc1c(O)c2c(n(Cc3ccccc3Cl)c1=O)CCC2)c1cccc(C(F)(F)F)c1
- IC50 [1]: 10 nM

Structure (SMILES): Cc1ccc([C@H](CC(=O)O)NC(=O)Nc2c(O)ccn(Cc3cc(C)cc(C)c3)c2=O)cc1
- IC50 [2]: 60 nM

Structure (SMILES): CCOc1cc(OCC)cc([C@H](CC(=O)O)NC(=O)Nc2c(O)c3c(n(Cc4c(Cl)cccc4OCC)c2=O)CCC3)c1 [(3S)-3-[({[1-(2-chloro-6-ethoxybenzyl)-4-hydroxy-2-oxo-2,5,6,7-tetrahydro-1H-cyclopenta[b]pyridin-3-yl]amino}carbonyl)amino]-3-(3,5-diethoxyphenyl)propanoic acid]
- IC50 [1]: 3 nM

Structure (SMILES): Cc1cc(C)cc([C@H](CC(=O)O)NC(=O)Nc2c(O)c3c(n(Cc4ccccc4Cl)c2=O)CCC3)c1 [(3S)-3-[({[1-(2-chlorobenzyl)-4-hydroxy-2-oxo-2,5,6,7-tetrahydro-1H-cyclopenta[b]pyridin-3-yl]amino}carbonyl)amino]-3-(3,5-dimethylphenyl)propanoic acid]
- IC50 [1]: 9 nM

Structure (SMILES): Cc1ccc([C@H](CC(=O)O)NC(=O)Nc2cccn(Cc3c(C)cc(C)cc3C)c2=O)cc1
- IC50 (Table 4, 30 minutes at 37° C.): 2500 nM

Structure (SMILES): O=C(O)C[C@H](NC(=O)Nc1c(O)c2c(n(Cc3ccccc3Cl)c1=O)CCC2)c1cnc2ccccc2c1
- IC50 [1]: 22 nM

Structure (SMILES): COc1cc([C@H](CC(=O)O)NC(=O)Nc2c(O)ccn(Cc3ccccc3Cl)c2=O)cc2c1OCO2 [(3S)-3-[({[1-(2-chlorobenzyl)-4-hydroxy-2-oxo-1,2-dihydropyridin-3-yl]amino}carbonyl)amino]-3-(7-methoxy-1,3-benzodioxol-5-yl)propanoic acid]
- IC50 [2]: 5 nM

Structure (SMILES): Cc1ccc(-c2ccc([C@H](CC(=O)O)NC(=O)Nc3c(O)ccn(Cc4ccccc4Cl)c3=O)cc2)cc1
- IC50 [1]: 40 nM

Structure (SMILES): COCCOCCOc1ccn(Cc2ccccc2Cl)c(=O)c1NC(=O)N[C@@H](CC(=O)O)c1ccc(C)cc1
- IC50 (Table 3, 30 minutes at 37° C.): 2 nM

Structure (SMILES): COc1ccc([C@H](CC(=O)O)NC(=O)Nc2cccn(Cc3ccccc3Br)c2=O)cc1C
- IC50 (Table 4, 30 minutes at 37° C.): 200 nM

Structure (SMILES): CCOc1cccc([C@H](CC(=O)O)NC(=O)Nc2c(O)c(C)nn(Cc3ccccc3Cl)c2=O)c1
- IC50 (Table 6, 30 minutes at 37° C.): 5 nM

Structure (SMILES): Cn1ccc2cc([C@H](CC(=O)O)NC(=O)Nc3c(O)ccn(Cc4ccccc4Cl)c3=O)ccc21
- IC50 (Table 6, 30 minutes at 37° C.): 3 nM

Structure (SMILES): Cc1ccc([C@H](CC(=O)O)NC(=O)Nc2cccn(Cc3nc4ccccc4o3)c2=O)cc1
- IC50 (Table 4, 30 minutes at 37° C.): > 10000 nM

Structure (SMILES): O=C(O)C[C@H](NC(=O)Nc1ccc(=O)n(Cc2ccccc2)c1)c1ccc2c(c1)OCO2
- IC50 (Table 4, 30 minutes at 37° C.): 500 nM

Structure (SMILES): CCOc1cccc([C@H](CC(=O)O)NC(=O)Nc2c(O)c(C)c(C)n(Cc3ccccc3Cl)c2=O)c1
- IC50 (Table 6, 30 minutes at 37° C.): 30 nM

Structure (SMILES): CCCc1cn(Cc2c(Cl)cccc2OC)c(=O)c(NC(=O)N[C@@H](CC(=O)O)c2ccc(C)cc2)c1O
- IC50 (Table 6, 30 minutes at 37° C.): 15 nM

Structure (SMILES): Cc1ccc([C@H](CC(=O)O)NC(=O)Nc2c(-c3ccccn3)nc(C)n(Cc3ccccc3)c2=O)cc1
- IC50 (Table 3, 30 minutes at 37° C.): 25 nM
- IC50 (Table 4, 30 minutes at 37° C.): 25 nM

Structure (SMILES): COc1ccc([C@H](CC(=O)O)NC(=O)Nc2c(O)ccn(Cc3ccccc3Cl)c2=O)cc1F
- IC50 [2]: 15 nM
